In publication PMC6706930, “A novel oral micellar fenretinide formulation with enhanced bioavailability and antitumour activity against multiple tumours from cancer stem cells” (Journal of Experimental & Clinical Cancer Research : CR, 2019):

Experiment: Fecal excretion of 4-HPR and metabolites
Type: in vivo, mice
Parameters: Fecal excretion, amount: unit not given here
Experimental: The oral pharmacokinetics of Bio-nFeR were investigated in four independent groups of 24 mice, randomized to receive different treatment with the following fenretinide equivalent doses: 10, 50, 100 and 200 mg/Kg. The drug was administered by oral gavage and after treatment, blood samples were taken at 15 and 30 min and at 1, 2, 4, 8/10, 24 and 48 h and collected in heparinized tubes from the retro-orbital plexus of the mice under isoflurane anesthesia. Mice were then sacrificed by cervical dislocation and liver, kidney and brain were removed and immediately frozen in dry-ice for future determination. To obtain plasma, blood was centrifuged at 4000 rpm for 10 min at 4 °C. To evaluate fenretinide and metabolites excretion, urine and faeces were collected over a 0–24 h and 24–48 h periods. The collection was performed in three mice per group of treatment, individually housed into metabolic cages for urine and faeces collection. All the biological samples were stored at − 20 °C until analysis. To compare the absorption of Bio-nFeR to NCI-FeR and to study the bioavailability, another independent groups of 24 mice were randomized to receive an oral dose of 200 mg/Kg of NCI-FeR. Blood samples were taken at the time reported above. Twenty-four hours fractions of urine and faeces were collected in three mice per group of treatment. Plasma and the other biological specimens were stored at − 20 °C until analysis. Chronic study: the oral pharmacokinetic of Bio-nFeR in comparison with NCI-FeR were also investigated after chronic administrations. Mice were divided in three independent groups, randomized to receive a single treatment of 150 mg/Kg or different repeated treatments of 150 mg/Kg, daily for 2 weeks (12 days on and 2 days off), or 100 mg/Kg bi-daily for 1 week (5 days on 2 days off). Bio-nFeR and NCI-FeR were administered by oral gavage, collecting blood samples at 0.5, 1, 2, 4, 8/10 and 24 h, the day of the single treatment and at 0, 1, 2, 4, 8/10, 24 and 48 h after the last dose of both the chronic treatments. The procedures of blood collection, plasma preparation, sacrifice of mice and storing of samples were as reported in acute study. Also during chronic treatment, excretions of fenretinide and metabolites in urine and faeces were determined collecting the specimens in three mice per group, both at the start of treatment and at the end of the repeated administration. All the collected samples were stored at − 20 °C until analysis.
The determination of fenretinide in plasma of mice and the others biological samples was determined according to a method specifically developed and validated for the quantification of fenretinide (4-HPR) based on liquid chromatography-tandem mass spectrometry (LC–MS/MS) (manuscript in preparation). The procedure of sample preparation and quantification can be summarized as follows. 30 μL aliquot of plasma was added with 3 ng of deuterated internal standard (^2H4 4-HPR), deproteinized by mean of 90 μL of acetonitrile and centrifuged 5 min at 13200 rpm at room temperature. The supernatant was recovered and 5 μL injected into a HPLC system (Series 200, Perkin Elmer, MA, USA). Chromatographic separation was achieved on a Gemini-C18 column (50 mm × 2.0 mm, 5 μm particle size; Phenomenex Inc., Torrance, CA, USA) at 32 °C protected with a Security Guard™ ULTRA cartridges C18. The detection obtained by Mass spectrometric detection was carried out on a triple quadrupole API 4000 mass spectrometer (Sciex, MA, USA) equipped with atmospheric pressure chemical ionization source (APCI) operating in positive ion mode monitoring the transitions 392.3 > 283.2 m/z for 4-HPR and 396.3 > 283.2 m/z for the deuterated internal standard. To assay study samples, a calibration curve of six points (range: 1.0–500.00 ng/mL) was prepared in control mouse plasma assessing the precision and the accuracy of the run analyzing at the same time a set of freshly prepared quality controls samples. […]

[1] = 2 wks 1 daily dose 150 mg/kg Bio-nFeR
[2] = 2 wks 1 daily dose 150 mg/kg NCI-FeR
[3] = feces after 24 hours, acute Bio-nFeR 10 mg/kg
[4] = feces after 24 hours, acute Bio-nFeR 50 mg/kg
[5] = feces after 24 hours, acute Bio-nFeR 100 mg/kg
[6] = feces after 24 hours, acute Bio-nFeR 200 mg/kg
[7] = feces after 24 hours, acute NCI-FeR 200 mg/kg
[8] = single admin. 150 mg/kg Bio-nFeR
[9] = single admin. 150 mg/kg NCI-FeR

| Compound | Fecal excretion, amount [1] | Fecal excretion, percent (in brackets) [1] | Fecal excretion, amount [2] | Fecal excretion, percent (in brackets) [2] | Fecal excretion, amount [3] | Fecal excretion, percent (in brackets) [3] | Fecal excretion, amount [4] | Fecal excretion, percent (in brackets) [4] | Fecal excretion, amount [5] | Fecal excretion, percent (in brackets) [5] | Fecal excretion, amount [6] | Fecal excretion, percent (in brackets) [6] | Fecal excretion, amount [7] | Fecal excretion, percent (in brackets) [7] | Fecal excretion, amount [8] | Fecal excretion, percent (in brackets) [8] | Fecal excretion, amount [9] | Fecal excretion, percent (in brackets) [9] | proportion of Bio-nFeR and NCI-FeR eliminated in faeces (acute treatment at multiple doses and chronic treatment) |
| --- | --- | --- | --- | --- | --- | --- | --- | --- | --- | --- | --- | --- | --- | --- | --- | --- | --- | --- | --- |
| CC1=C(/C=C/C(C)=C/C=C/C(C)=C/C(=O)Nc2ccc(O)cc2)C(C)(C)CCC1 [4-HPR, 4-hydroxy (phenyl)retinamide, reference compound] | 97.4 | 4.2% | 270 | 7.6% | 4.7 | 3.2% | 38.2 | 4.0% | 33.6 | 1.9% | 77.4 | 2.5% | 153.4 | 5.5% | 129.5 | 6.1% | 247.1 | 9.2% |  |
| CC1=C(/C=C/C(C)=C/C=C/C(C)=C/C(=O)Nc2ccc(O)cc2)C(C)(C)CCC1=O [4-oxo-4-HPR] | 97.5 | 4.2% | 201.1 | 6.6% | 47 | 32.6% | 253.8 | 26.5% | 85.5 | 4.9% | 129.8 | 4.3% | 115.6 | 3.9% | 108.4 | 5.0% | 103.7 | 4.2% |  |
| COc1ccc(NC(=O)\C=C(C)/C=C/C=C(C)\C=C\C2=C(C)CCCC2(C)C)cc1 [MPR] | 0.9 | 0.0% | 0.8 | 0.0% | 0.03 | 0.02% | 0.5 | 0.05% | 0.7 | 0.04% | 1.2 | 0.05% | 0.4 | 0.02% | 1.6 | 0.1% | 0.4 | 0.02% | less than 0.1% |
